Columns and labels:
hippocampal slices = assay: Spontaneous interictal-like bursts in hippocampal slices after additions to the bathing medium; assay type: cell-based, rat; settings: 4 slices
Experimental: (§1) Sprague-Dawley rats (male and female; 25 to 35 days old) were prepared as described in Aghajanian, A. K. and Rasmussen, K., Synapse 31:331, 1989; and Buckmaster, P. S., Strowbridge, B. W., Schwartzdroin, P. A., J. Neurophysiol. 70:1281, 1993. In most hippocampal slice experiments, simultaneous extracellular field electrode recordings were obtained from CA1 and CA3 areas. For stimulation-evoked afterdischarge (13 slices, 8 animals), the concentration of Mg^2+ in the bathing medium was reduced to 0.9 mM. A bipolar tungsten stimulating electrode was placed on the Schaffer collaterals to evoke synaptically driven field responses in CA1; stimuli consisted to 100 to 300-μs-duration pulses at an intensity of four times population-spike threshold. After discharges were evoked by a 2-s train of such stimuli delivered at 60 Hz. […] In all treatments, perfusion with furosemide-containing medium was begun after a consistent level of bursting had been established.

[1] = test system: hippocampal tissue slice (CA1, Schaffer collateral stimulation); assay: Stimulation-evoked afterdischarge in acute hippocampal slice: extracellular field recording and imaging of intrinsic optical signals; assay type: cell-based, rat
Experimental: as §1
For imaging of intrinsic optical signals, the tissue was illuminated with a beam of white light (tungsten filament light and lens system; Dedotec USA, Lodi, N.J.) directed through the microscope condenser. The light was controlled and regulated (power supply: Lambda Electronics, Melville, N.Y.) to minimize fluctuations and filtered (695 nm long-pass) so that the slice was transilluminated with long wavelengths (red). Image frames were acquired with a charge-coupled device camera (Dage-MTI) at 30 Hz and were digitized at 8 bits with a spatial resolution of 512 by 480 pixels by means of an Imaging Technology Series 151 imaging system; gains and offsets of the camera-control box and the analog-to-digital board were adjusted to optimize the sensitivity of the system. Imaging hardware was controlled by a 486-PC-compatible computer running software written by D. Hochman and developed with commercially available software tools (Microsoft's C/C++ Compiler and Imaging Technology's ITEX library). To increase signal-to-noise ratio, an averaged image was composed from 16 individual image-frames, integrated over 0.5 s and averaged together. An experimental series typically involved the continuous acquisition of a series of averaged images over a several minute time period; at least 10 of these averaged images were acquired as control images before stimulation. Pseudocolored images were calculated by subtracting the first control image from subsequently acquired images and assigned a color lookup table to the pixel values. For these images, usually a linear low-pass filter was used to remove high-frequency noise and a linear-histogram stretch was used to map the pixel values over the dynamic range of the system. All operations on these images were linear so that quantitative information was preserved.

[2] = test system: brain tumor and normal tissue; assay: Optical imaging of brain tumor through the intact cranium after intravenous dye injection
[3] = 20 minutes of perfusion with medium containing 2.5 mM furosemide
[4] = following treatment with furosemide (FIG. 3E)

CN1CCc2cc3c(cc2[C@H]1[C@@H]1OC(=O)c2c1ccc1c2OCO1)OCO3 [bicuculine]
spontaneous interictal-like bursts, average (hippocampal slices; 50 to 100 bicuculine in bathing medium, 3 animals): 14 bursts/min

Nc1ccncc1 [4-AP]
spontaneous interictal-like bursts, average (hippocampal slices; 200 to 300 μM 4-AP in bathing medium, 2 animals): 33 bursts/min

NS(=O)(=O)c1cc(C(=O)O)c(NCc2ccco2)cc1Cl [furosemide]
field response to the test pulse [1, 3]: hyperexcitable field response (multiple population spikes)
stimulation-evoked optical changes [1, 3]: blocked
electrical afterdischarge activity ([1]; 20 minutes of perfusion with medium containing 2.5 mM furosemide, 2 s stimulation at 60 Hz): blocked
response pattern after washout ([1]; following 45 minutes of perfusion with normal bathing medium): restoration of the initial response pattern
epileptiform activity during electrical stimulation [1, 4]: blocks
intrinsic optical signal during electrical stimulation [1, 4]: blocks

CC1(C)C(/C=C/C=C/C=C/C=C2\N(CCCCS(=O)(=O)O)c3ccc4ccccc4c3C2(C)C)=[N+](CCCCS(=O)(=O)[O-])c2ccc3ccccc3c21 [indocyanine green]
dye distribution in normal and tumor tissue ([2]; five seconds after dye injection): profuse through both normal and tumor tissue
dye in normal tissue ([2]; one minute after dye injection): cleared the dye
dye in tumor region ([2]; one minute after dye injection): still retained

Reference: US6573063B2, “Methods and systems for assessing biological materials using optical and spectroscopic detection techniques” (Cytoscan Sciences, LLC, priority 1995, dated 2003)
